Laboratory results reported in paper PMC3951351 (Biochemistry, 2009).

Molecular target: T1, MreB (MreB1) (Thermotoga maritima, UniProt Q9WZ57)
T1 sequence (Q9WZ57 1-336): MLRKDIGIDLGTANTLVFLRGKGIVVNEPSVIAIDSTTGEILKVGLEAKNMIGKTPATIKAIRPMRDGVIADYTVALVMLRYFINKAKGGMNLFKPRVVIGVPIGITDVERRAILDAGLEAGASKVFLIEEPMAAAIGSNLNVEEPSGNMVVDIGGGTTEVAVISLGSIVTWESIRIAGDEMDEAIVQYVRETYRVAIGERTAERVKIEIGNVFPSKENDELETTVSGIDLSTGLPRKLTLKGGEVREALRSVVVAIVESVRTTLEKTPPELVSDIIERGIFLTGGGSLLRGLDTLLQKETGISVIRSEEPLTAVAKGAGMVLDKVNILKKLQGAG
Assay: STD NMR titration
Format: binding

Kd: 1320 ± 140 nM
Compound: N=C(N)SCc1ccc(Cl)c(Cl)c1 [A22, S-(3,4-dichlorobenzyl)isothiourea]
